Assays:
[1] = refractive index (other wavelength) (dimensionless); details: 101 kPa, Liquid, Wavelength=632.8 nm, Newport model 1825-C
[2] = refractive index (other wavelength) (dimensionless); xn = mol fraction of the nth substance listed; details: 305.5 K, 101 kPa, Liquid, Wavelength=632.8 nm, Newport model 1825-C

CCCCCCCCCCCCCCCCCC [octadecane]
[1]
Details	refractive index
301.97 K	1.4339
303.42 K	1.4333
304.68 K	1.4328
306.38 K	1.4321
307.84 K	1.4315
309.28 K	1.4307

N#Cc1ccccc1 [benzonitrile]
[1]
Details	refractive index
301.4 K	1.521
302.96 K	1.5202
304.8 K	1.5194
306.42 K	1.5186
307.83 K	1.5179
309.65 K	1.517

CCCCCCCCCCCCCCCCCC [octadecane] + N#Cc1ccccc1
[2]
Details	refractive index
x2 = 0.0996	1.4316
x2 = 0.1986	1.4362
x2 = 0.2992	1.4398
x2 = 0.4025	1.4447
x2 = 0.4955	1.4499
x2 = 0.5947	1.4567
x2 = 0.7985	1.4777
x2 = 0.8876	1.4917

— the NIST ThermoML archive (doi:10.1016/j.jct.2005.05.012)
